{"source": "paper PMC12214830", "about": "“The human RIF1-Long isoform interacts with BRCA1 to promote recombinational fork repair under DNA replication stress” (Nature Communications, 2025)", "format_in_all_cases": "cell-based, human", "key": {"RAD51 foci": {"system": "RAD51 foci", "assay": "RAD51 foci formation, HeLa cells", "settings": "24 h HU 4 mM", "description": "Cells were grown on glass coverslips and treated as desired. Cells were then permeabilized with 0.5% TritonX-100 in PBS for 7 min on ice, and fixed with 4% w/v formaldehyde solution (Sigma HT5012) for 10 min at room temperature (RT). After fixation, coverslips were blocked with 3% BSA in PBS (RT, 1 h), incubated with primary antibodies (RT, 2 h), washed with PBS three times and incubated with secondary antibodies (RT, 1 h). […] Fluorescence signal intensities within each nucleus were analysed by CellProfiler software with custom-made pipelines. […]\nFor proximity ligation assays and immunofluorescence signal intensity measurements, when comparing between two samples, statistical significance of differences was calculated by Mann-Whitney test for non-parametric distributions using GraphPad Prism software (v.9). When comparing among three or more samples, p values were calculated by Kruskal-Wallis test for non-parametric distributions with Dunn’s multiple comparisons using GraphPad Prism software (v.9). For RIF1 foci formation analysis (Fig. 6B), p values were calculated by two-tailed Student’s t test. For nuclear BRCA1 intensity fold change analyses (Fig. 6C, D), p values were calculated by two-tailed one-sample t test using GraphPad Prism software (v.9). For RAD51 foci formation analyses (Fig. 7B, E and Supplementary Fig. 7B), p values were calculated by chi-square test. […]"}, "[1]": {"system": "RIF1-BRCA1 proximity in HeLa cells", "assay": "RIF1-BRCA1 proximity ligation assay, HeLa cells", "description": "Proximity ligation assays were performed using the Duolink In Situ PLA Fluorescence Protocol (Sigma-Aldrich, DUO92101) following the manufacturer’s instruction. Cells were grown on glass coverslips and treated as indicated for specific experiments. Cells were then permeabilized with 0.5% TritonX-100 in PBS for 10 min on ice, and fixed with 3% formaldehyde, 2% sucrose in PBS for 10 min at room temperature (RT). After fixation, coverslips were blocked in 3% BSA in PBS for 1 h at RT and incubated with primary antibodies (anti-RIF1, Bethel laboratories A300-568A, 1:1000 dilution; anti-BRCA1, Santa Cruz Biotechnologies, sc-6954, 1:200 dilution), for 1 h at RT in a humidity chamber. Primary antibodies were then washed off with PLA washing buffer A supplied in the Duolink In Situ PLA kit. Coverslips were next incubated sequentially with PLA Probes (1 h at 37 °C), ligation solution (30 min at 37 °C) and amplification solution (100 min at 37 °C), with washes by washing buffer A in between each step. At the end of incubation, coverslips were washed with washing buffer B supplied in the Duolink In Situ PLA kit. Coverslips were then mounted on glass slides with PLA Mounting medium with DAPI. Images were captured by fluorescence microscopy (Zeiss Axio Imager). PLA foci number in each nucleus were analysed by CellProfiler Software[74] with a custom-made pipeline.\nFor proximity ligation assays and immunofluorescence signal intensity measurements, when comparing between two samples, statistical significance of differences was calculated by Mann-Whitney test for non-parametric distributions using GraphPad Prism software (v.9). When comparing among three or more samples, p values were calculated by Kruskal-Wallis test for non-parametric distributions with Dunn’s multiple comparisons using GraphPad Prism software (v.9). For RIF1 foci formation analysis (Fig. 6B), p values were calculated by two-tailed Student’s t test. For nuclear BRCA1 intensity fold change analyses (Fig. 6C, D), p values were calculated by two-tailed one-sample t test using GraphPad Prism software (v.9). For RAD51 foci formation analyses (Fig. 7B, E and Supplementary Fig. 7B), p values were calculated by chi-square test. For HR Reporter assay analysis (Fig. 7G and Supplementary Fig. 7L), p values were calculated by two-tailed paired Student’s t test. For micronuclei frequency analysis (Fig. 7H), p values were calculated by one-tailed paired Student’s t test. All Student’s t tests were performed with Excel T.TEST function. Chi-square tests were performed with the online Chi-square test calculator at https://www.socscistatistics.com/tests/chisquare2/default2.aspx. Sample number n for all box-and-whisker plots and dot plots are listed in Supplementary Data 1."}, "ssDNA": {"system": "ssDNA", "assay": "native IdU immunofluorescence (ssDNA), RPE-1 cells", "settings": "HU 4 mM 24 h", "description": "For detection of iododeoxyuridine (IdU) by immunofluorescence, cells were grown in the presence of 10 µM IdU for 72 h (with Morpholinos added at 24 h and HU added at 48 h). Cells were then permeabilized with 0.5% TritonX-100 in PBS for 7 min on ice, fixed with 4% w/v formaldehyde solution for 15 min at RT, and treated again with 0.5% TritonX-100 in PBS for 10 min on ice. Coverslips were immunostained as described above."}, "[2]": {"settings": "Fig 5G/H, HeLa RIF1 KO + RIF1-L-pp1bs, HU 4 mM 24 h"}, "[3]": {"settings": "Fig 5G/H, HeLa RIF1 KO + RIF1-L, HU 4 mM 24 h"}, "[4]": {"settings": "Fig 5G/H, HeLa RIF1 KO, HU 4 mM 24 h"}, "[5]": {"settings": "Fig S3F, HeLa RIF1-L-APKF, HU 4mM 24hr"}, "[6]": {"settings": "Fig S3F, HeLa RIF1-L, HU 4mM 24hr"}, "[7]": {"settings": "Fig S3F, HeLa RIF1-S, HU 4mM 24hr"}, "[8]": {"settings": "Fig S4H, HeLa +RIF1-L, HU 4mM 24hr"}, "[9]": {"settings": "Fig S4I, HeLa +RIF1-L, HU 4mM 24hr"}, "[10]": {"settings": "Fig S5G (repeat), HeLa RIF1 WT (RIF1-L), HU 4mM 24hr"}, "[11]": {"settings": "Fig S5G (repeat), HeLa RIF1 pp1bs, HU 4mM 24hr"}, "[12]": {"settings": "Fig S5I, HeLa RIF1-L-pp1bs-APKF, HU 4mM 24hr"}, "[13]": {"settings": "Fig S5I, HeLa RIF1-L-pp1bs, HU 4mM 24hr"}}, "data": [{"smiles": "NC(=O)NO", "note": "[HU, hydroxyurea]", "values": [{"measurement": "proportion of cells containing RAD51 foci", "setting": "RAD51 foci", "value": "greatly increased"}, {"measurement": "RIF1-BRCA1 PLA foci per nucleus, mean", "setting": "[1]; [2]", "value": 45.51}, {"measurement": "RIF1-BRCA1 PLA foci per nucleus, median", "setting": "[1]; [2]", "value": 42}, {"measurement": "RIF1-BRCA1 PLA foci per nucleus, mean", "setting": "[1]; [3]", "value": 27.55}, {"measurement": "RIF1-BRCA1 PLA foci per nucleus, median", "setting": "[1]; [3]", "value": 21}, {"measurement": "RIF1-BRCA1 PLA foci per nucleus, mean", "setting": "[1]; [4]", "value": 1.394}, {"measurement": "RIF1-BRCA1 PLA foci per nucleus, median", "setting": "[1]; [4]", "value": 1}, {"measurement": "RIF1-BRCA1 PLA foci per nucleus, mean", "setting": "[1]; [5]", "value": 14.65}, {"measurement": "RIF1-BRCA1 PLA foci per nucleus, median", "setting": "[1]; [5]", "value": 12}, {"measurement": "RIF1-BRCA1 PLA foci per nucleus, mean", "setting": "[1]; [6]", "value": 18.04}, {"measurement": "RIF1-BRCA1 PLA foci per nucleus, median", "setting": "[1]; [6]", "value": 15}, {"measurement": "RIF1-BRCA1 PLA foci per nucleus, mean", "setting": "[1]; [7]", "value": 13.85}, {"measurement": "RIF1-BRCA1 PLA foci per nucleus, median", "setting": "[1]; [7]", "value": 12}, {"measurement": "RIF1-BRCA1 PLA foci per nucleus, mean", "setting": "[1]; [8]", "value": 21.43}, {"measurement": "RIF1-BRCA1 PLA foci per nucleus, median", "setting": "[1]; [8]", "value": 20}, {"measurement": "RIF1-BRCA1 PLA foci per nucleus, mean", "setting": "[1]; [9]", "value": 18.83}, {"measurement": "RIF1-BRCA1 PLA foci per nucleus, median", "setting": "[1]; [9]", "value": "2, 17, 17"}, {"measurement": "RIF1-BRCA1 PLA foci per nucleus, mean", "setting": "[1]; [10]", "value": 40.69}, {"measurement": "RIF1-BRCA1 PLA foci per nucleus, median", "setting": "[1]; [10]", "value": 37}, {"measurement": "RIF1-BRCA1 PLA foci per nucleus, mean", "setting": "[1]; [11]", "value": 62.09}, {"measurement": "RIF1-BRCA1 PLA foci per nucleus, median", "setting": "[1]; [11]", "value": 62}, {"measurement": "RIF1-BRCA1 PLA foci per nucleus, mean", "setting": "[1]; [12]", "value": 46.58}, {"measurement": "RIF1-BRCA1 PLA foci per nucleus, median", "setting": "[1]; [12]", "value": 42}, {"measurement": "RIF1-BRCA1 PLA foci per nucleus, mean", "setting": "[1]; [13]", "value": 53.47}, {"measurement": "RIF1-BRCA1 PLA foci per nucleus, median", "setting": "[1]; [13]", "value": 53}, {"measurement": "native IdU staining", "setting": "ssDNA", "value": "both increased upon HU treatment"}]}]}
